Tests used:
[1] = tested on: Antibodies prepared from BSA conjugate according to Example 6; experiment: Cross-reactivity in homogeneous enzyme immunoassay for propranolol (G6PDH conjugate, change in OD at 340nm); assay type: binding; conditions: 100ng/ml propranolol standard
Protocol: (§1) Antibodies were prepared employing the conjugates of Examples 4 and 6 in accordance with known procedures. The bleeds were harvested and the antibodies isolated according to known techniques.
(§2) The following is the assay procedure employed for the determination of the presence of propranolol.
(§3) In carrying out the propranolol assay, a number of reagent solutions are prepared:
(§4) • 0.055M Tris-HCl • 0.05% Sodium Azide • 0.005% Thimerosal • pH8.1 at room temperature • Assay Buffer • Basic Buffer • 0.5% NaCl • 0.01% Triton X-100 • pH8.1 at room temperature • Substrate/Antibody Diluent • Basic Buffer • 1.0% RSA (Rabbit Serum Albumin) • 0.04M NAD • 0.066M glucose-6-phosphate • pH5.0 at room temperature • Enzyme Diluent • Basic Buffer • 1.0% RSA • 0.9% NaCl • pH 8.1 at room temperature • Antibody-Substrate Reagent A
(§5) Antibody Substrate is used to dilute gamma globulin isolated as above so that ca 70% of the G6PDH conjugate activity is inhibited in the assay solution.
(§6) The enzyme conjugate (e.g., Example 7) is diluted with enzyme diluent to attain the desired maximum rate. This is measured by aspirating into a spectrometer and taking the change in readings at 340nm over a 30 second period after a 15 second delay.
(§7) In carrying out the assay, the assay solution is prepared by combining the following: 50µl of the sample to be assayed, 50 µl of Reagent A, and 50 µl of Reagent B with 750 µl of assay buffer. The mixture is aspirated into a spectrometer and the A OD read at 340nm. The.concentration of propranolol in the sample is read from a standard curve prepared by using standardized solutions and taking readings.
(§8) The drugs listed below were used in preliminary testing for cross-reactivity with propranolol using the assay procedure described above: 4-hydroxypropranolol (4POH), N-desisopropyl-propranolol (DIPP), propranolol glycol (PG), naphthoxylactic acid (NLA), and naphthoxyacetic acid (NAA). All are metabolites of propranolol itself. […] The remainder show cross reactivity as below.

[2] = tested on: Antibodies prepared from BgG conjugate according to Example 4; experiment: as above; assay type: binding; conditions: Lot 2153; 100ng/ml propranolol standard
Protocol: as §1, §2, §3, §4, §5, §6, §7, §8

Row | CROSS-REACTIVITY, expressed as the concentration necessary to elevate the signal of a 100ng/ml standard solution by 30% ([1]; Lot 2215) | CROSS-REACTIVITY, expressed as the concentration necessary to elevate the signal of a 100ng/ml standard solution by 30% ([1]; Lot 2216) | CROSS-REACTIVITY, expressed as the concentration necessary to elevate the signal of a 100ng/ml standard solution by 30% [2] | SMILES
1 | 230 ng/mL | 400 ng/mL | 84 ng/mL | OCC(O)COc1cccc2ccccc12 (stereo not drawn) [PG, propranolol glycol]
2 | 22 ng/mL | 200 ng/mL | 8 ng/mL | NCC(O)COc1cccc2ccccc12 (stereo not drawn) [DIPP, N-desisopropyl-propranolol]
3 | >1000 ng/mL | >1000 ng/mL | 190 ng/mL | CC(C)NCC(O)COc1ccc(O)c2ccccc12 (stereo not drawn) [Example 4POH, 4-hydroxypropranolol]

— EP0045334A1, “Propranolol antigen conjugates and antibodies and method of using them” (SYVA COMPANY, priority 1980, dated 1982)
